Experimental data from patent US4322411A, “Anti-inflammatory nucleosides” (Burroughs Wellcome Co., priority 1980, dated 1982).
Like-named read-outs stand apart in the source and are kept apart here.

Legend:
liver = assay: Liver damage in animal models; type: in vivo; settings: in the animal models used
lipoxygenase pathway = assay: Inhibition of prostaglandin metabolism in vitro, lipoxygenase pathway; type: biochemical
[1] = test system: carrageenan pleurisy (3 hr exudate volume); assay: Local anti-inflammatory activity: Carrageenan Pleurisy Assay (CPA), intrapleural; type: in vivo, rat; settings: 3 hr Vol
Excerpt: Local Anti-Inflammatory Activity of 3-Deazaadenosine: Carrageenan Pleurisy Assay (CPA)
Following the procedure described by Vinegar et al., Eur. J. Rheum. Inflam. […] There were 5 animals in each drug-treated group and the control group.

[2] = test system: carrageenan pleurisy (3 hour pleural exudate volume); assay: Duration of action of anti-inflammatory activity (Carrageenan Pleurisy Assay); type: in vivo, rat; settings: for duration of action (time of drug administration prior to carrageenan injection at which inhibition of 3 hour pleural exudate volume declined to 40%): single oral pretreating dose
Procedure: Following the procedure previously described by Vinegar et al. in Proc. Soc. Exp. Biol. Med., 143, 711 (1973) and recently modified (Vinegar et al., Eur. J. Rheum. Inflam. 1, 204 (1978)) the acute anti-inflammatory activity of 3-deazaadenosine was compared with that of known anti-inflammatory drugs. The average 3 hr exudate volume for each drug-treated group was determined and the % inhibition relative to solvent-fed control animals calculated, the ED50 (mg/kg of body wt) being the dose required to reduce the 3 hr exudate volume by 50%. There were 5 animals in each drug-treated group and the control group.
Duration of action of anti-inflammatory activity of 3-deazaadenosine
By means of the Carrageenan Pleurisy Assay of Example 1 the duration of action of the test compounds after a single oral pretreating dose was determined. For 3-deazaadenosine the effect lasted for 14.9 hours at 6 mg/kg (p.o.) whilst for aspirin (150 mg/kg p.o.) and acetaminophen (220 mg/kg p.o.) the effect lasted […] and 2 hours, respectively. This value represents the time (hours) of drug administration prior to the injection of carrageenan in which the inhibition of the 3 hour pleural exudate volume declined to 40%.

Half life = settings: in vivo
immune response = settings: in vivo; cited from earlier work
Therapeutic index = settings: in vivo
[3] = test system: developing adjuvant arthritis; assay: Developing adjuvant arthritis; type: in vivo, rat; settings: for ED50: Rattus norvegicus, po, 384 h, read-out: Developing Arthritis ED50 on Day 16
Procedure: (§1) There were 5 animals in each drug-treated group. For developing adjuvant arthritis the drugs were administered in the diet from day 1 to day 16. For established adjuvant arthritis the drugs were administered from day 21 to day 42.

Analgesic activity = settings: in vivo
[4] = test system: established adjuvant arthritis; assay: Established adjuvant arthritis; type: in vivo, rat; settings: for ED25: Rattus norvegicus, po, 1008 h, read-out: Established Arthritis ED25 on Day 42
Procedure: as §1

[5] = Side effects (gastric damage, platelet aggregation, steroid side effects)
[6] = in vivo; cited from earlier work
cyclooxygenase pathway = assay: Inhibition of prostaglandin metabolism in vitro, cyclooxygenase pathway; type: biochemical
inflammation = assay: Anti-inflammatory effectiveness by route; type: in vivo; settings: result in words
Antipyretic activity = settings: in vivo
Water solubility = type: physicochemical

## Nc1nccc2c1ncn2[C@@H]1O[C@H](CO)[C@@H](O)[C@H]1O [3-Deazaadenosine, 4-amino-1-β-D-ribofuranosyl-1H-imidazo[4,5-c]-pyridine]
liver
  liver damage: does not cause liver damage
Lipoxygenase pathway
  inhibition of prostaglandin metabolism via lipoxygenase pathway: does not inhibit
[1]
  ED50: 0.05 mg/rat
[2]; 6 mg/kg p.o.
  duration of action (time of drug administration prior to carrageenan injection at which inhibition of 3 hour pleural exudate volume declined to 40%): 14.9 h
[2]; general statement, no dose given
  duration of action: about 15 hours
Half life
  half life: short
Immune response
  dose required for immunesuppression: more than 30 mg/kg
Therapeutic index
  therapeutic index: high
[3]; in diet from day 1 to day 16
  ED50: 8 ± 2.8 mg/kg
[3]; result in words
  inhibition of developing adjuvant arthritis: inhibit both developing and established adjuvant arthritis
Analgesic activity
  analgesic activity per se: has not analgesic activity per se
[4]; from day 21 to day 42, parentheses indicate an approximate value
  ED25: ~18 mg/kg/day
[4]; result in words
  inhibition of established adjuvant arthritis: inhibit both developing and established adjuvant arthritis
[5]
  side effects of the anti-inflammatory steroids: free of the side effects of the anti-inflammatory steroids
[5]; inferred from lack of inhibition of prostaglandin metabolism
  side effects associated with prostaglandin inhibitors (gastric damage, inhibition of platelet aggregation): free of the side effects
[6]
  dose required for antiviral activity: 100-200 mg/kg per day
Cyclooxygenase pathway
  inhibition of prostaglandin metabolism via cyclooxygenase pathway: does not inhibit
inflammation
  anti-inflammatory effectiveness by route: effective orally, systemically and locally
Antipyretic activity
  antipyretic activity: not antipyretic
Water solubility
  water solubility: high

## CC(=O)Oc1ccccc1C(=O)O [Aspirin, reference compound]
[1]
  ED50: 0.04 mg/rat
[2]; 150 mg/kg p.o.
  duration of action (time of drug administration prior to carrageenan injection at which inhibition of 3 hour pleural exudate volume declined to 40%): 35 h
[3]
  ED50: 150 ± 53.1 mg/kg
[4]
  ED25: < 150 mg/kg/day

## C[C@]12CCC(=O)C=C1CC[C@@H]1[C@@H]2[C@@H](O)C[C@@]2(C)[C@H]1CC[C@]2(O)C(=O)CO [Hydrocortisone]
[1]
  ED50: < 0.1 mg/rat

## C[C@]12C=CC(=O)C=C1CC[C@@H]1[C@@H]2[C@@H](O)C[C@@]2(C)[C@H]1CC[C@]2(O)C(=O)CO [Prednisolone, reference compound]
[3]
  ED50: 1 mg/kg
[4]
  ED25: 0.2 mg/kg/day

## CC(=O)Nc1ccc(O)cc1 [acetaminophen, reference compound]
liver
  liver damage: cause liver damage
[2]; 220 mg/kg p.o.
  duration of action (time of drug administration prior to carrageenan injection at which inhibition of 3 hour pleural exudate volume declined to 40%): 2 h
